Test results taken from patent US20140141099A1, “DRUG DISCOVERY METHODS” (Vertex Pharmaceuticals Incorporated, priority 2007, published 2014).
pKi: −log10 of the molar value. Where two headings read alike, the source gives them in different places.

How the values were obtained:
Aurora-1 (Aurora B) = Aurora-1 (Aurora B) (Homo sapiens, UniProt Q96GD4); experiment: Aurora-1 (Aurora B) Inhibition Assay (Radiometric); type: biochemical
Experimental: An assay buffer solution was prepared which consisted of 25 mM HEPES (pH 7.5), 10 mM MgCl2, 0.1% BSA and 10% glycerol. […] To 22 μL of the Aurora-B solution, in a 96-well plate, was added 2 μl of a compound stock solution in DMSO and the mixture allowed to equilibrate for 10 minutes at 25° C. The enzyme reaction was initiated by the addition of 16 μl stock [γ-^33P]-ATP solution (˜20 nCi/μL) prepared in assay buffer, to a final assay concentration of 800 μM. The reaction was stopped after 3 hours by the addition of 16 μL 500 mM phosphoric acid and the levels of ^33P incorporation into the peptide substrate were determined by the following method.
A phosphocellulose 96-well plate (Millipore, Cat no. MAPHNOB50) was pre-treated with 100 μL of a 100 mM phosphoric acid prior to the addition of the enzyme reaction mixture (40 μL). The solution was left to soak on to the phosphocellulose membrane for 30 minutes and the plate subsequently washed four times with 200 μL of a 100 mM phosphoric acid. […] Levels of non-enzyme catalyzed background radioactivity were determined by adding 16 μL of the 500 mM phosphoric acid to control wells, containing all assay components (which acts to denature the enzyme), prior to the addition of the [γ-^33P]-ATP solution. Levels of enzyme catalyzed ^33P incorporation were calculated by subtracting mean background counts from those measured at each inhibitor concentration. […] Ki values were calculated from initial rate data by non-linear regression using the Prism software package (Prism 3.0, Graphpad Software, San Diego, Calif.).

Aurora-2 (Aurora A) = biological target: T1, Aurora-2 (Aurora A) (Homo sapiens, UniProt O14965); experiment: Aurora-2 (Aurora A) Inhibition Assay (coupled enzyme assay); type: biochemical
T1 sequence (O14965 1-403): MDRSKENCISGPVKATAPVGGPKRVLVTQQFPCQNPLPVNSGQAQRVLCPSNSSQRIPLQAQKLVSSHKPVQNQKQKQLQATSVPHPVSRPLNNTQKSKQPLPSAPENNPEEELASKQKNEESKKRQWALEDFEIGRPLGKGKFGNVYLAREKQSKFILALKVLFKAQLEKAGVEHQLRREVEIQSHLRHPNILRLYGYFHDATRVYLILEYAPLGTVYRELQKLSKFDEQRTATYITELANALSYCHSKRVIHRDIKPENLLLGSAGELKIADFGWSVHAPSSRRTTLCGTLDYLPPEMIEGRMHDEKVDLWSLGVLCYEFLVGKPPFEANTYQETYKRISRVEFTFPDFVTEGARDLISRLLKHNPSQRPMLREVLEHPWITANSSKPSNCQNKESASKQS
Experimental: Assays were carried out in a mixture of 100 mM Hepes (pH7.5), 10 mM MgCl2, 1 mM DTT, 25 mM NaCl, 2.5 mM phosphoenolpyruvate, 300 μM NADH, 30 μg/ml pyruvate kinase and 10 μg/ml lactate dehydrogenase. […] Assays were carried out at 30° C. and in the presence of 40 nM Aurora-2.
An assay stock buffer solution was prepared containing all of the reagents listed above, with the exception of Aurora-2 and the test compound of interest. […] The plate was preincubated for 10 minutes at 30° C. and the reaction initiated by addition of 10 μl of Aurora-2. Initial reaction rates were determined with a Molecular Devices SpectraMax Plus plate reader over a 10 minute time course. IC50 and Ki data were calculated from non-linear regression analysis using the Prism software package (GraphPad Prism version 3.0cx for Macintosh, GraphPad Software, San Diego Calif., USA).

tumor = experiment: Animal model of tumor growth inhibition, once a week dosing; type: in vivo
Text: Applicants have discovered that for compounds that display a […] binding mechanism with slow, tight-binding kinetics, the Ki* value is a much better predictive tool for cell potency than is Ki. In some embodiments, such compounds have a strong pharmacodynamic profile, resulting in long term cell activity that would allow for shorter dosing regimens in vivo. A typical dosing regimen for Aurora inhibitors in animal models is, e.g., at least once a day dosing. In one embodiment, applicants' invention allows for selecting compounds that may be dosed less than once a day.

Chain of Aurora-1 (Aurora B) (Q96GD4 whole entry): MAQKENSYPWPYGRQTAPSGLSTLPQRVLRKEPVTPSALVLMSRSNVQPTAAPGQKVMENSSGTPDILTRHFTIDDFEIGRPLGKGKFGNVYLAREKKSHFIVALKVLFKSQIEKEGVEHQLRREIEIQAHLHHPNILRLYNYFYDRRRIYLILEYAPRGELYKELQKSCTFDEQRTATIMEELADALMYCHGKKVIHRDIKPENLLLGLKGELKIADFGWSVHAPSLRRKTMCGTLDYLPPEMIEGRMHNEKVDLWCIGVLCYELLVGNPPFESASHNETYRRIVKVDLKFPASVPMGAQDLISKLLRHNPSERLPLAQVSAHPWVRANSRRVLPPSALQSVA

Structure (SMILES): Cc1cc(Nc2cc(N3CCC(N4CCCC4)CC3)nc(Sc3ccc4ccccc4c3)n2)[nH]n1 [Compound 33]
- pKi (Aurora-1 (Aurora B)): 7.19
- pKi (Aurora-2 (Aurora A); read-out: Aurora A Ki): 8.16

Structure (SMILES): CCC(=O)Nc1ccc(Sc2nc(Nc3cc(C)n[nH]3)cc(N3CCN(C(C)(C)C)CC3)n2)cc1 [Compound 2]
- pKi (Aurora-1 (Aurora B)): 7.95
- pKi (Aurora-2 (Aurora A)): 8.67
- tumor growth inhibition (tumor): very good tumor growth inhibition

Structure (SMILES): CCC(=O)Nc1ccc(Sc2nc(Nc3cc(C)n[nH]3)cc(N3CCC(O)(C(C)(C)C)C3)n2)cc1 (stereo not drawn) [Compound 27]
- pKi (Aurora-1 (Aurora B)): 6.99
- pKi (Aurora-2 (Aurora A); read-out: Aurora A Ki): 9.46

Structure (SMILES): Cc1cc(Nc2cc(N3CC(O)(C4CC4)C3)nc(Sc3ccc4ccccc4c3)n2)n[nH]1 [Compound 34]
- pKi (Aurora-1 (Aurora B)): 7.29
- pKi (Aurora-2 (Aurora A); read-out: Aurora A Ki): 9.20

Structure (SMILES): CCC(=O)Nc1ccc(Sc2nc(Nc3cc(C)n[nH]3)cc(N3CCC(O)(c4cc(F)ccc4OC)CC3)n2)cc1 [Compound 24]
- pKi (Aurora-1 (Aurora B)): 6.85
- pKi (Aurora-2 (Aurora A); read-out: Aurora A Ki): 9.44

Structure (SMILES): CCC(=O)Nc1ccc(Sc2nc(Nc3cc(C)n[nH]3)cc(N3CCC4(CCN(C)C4)CC3)n2)cc1 [Compound 17]
- pKi (Aurora-1 (Aurora B)): 7.22
- pKi (Aurora-2 (Aurora A); read-out: Aurora A Ki): 8.69

Structure (SMILES): CCC(=O)Nc1ccc(Sc2nc(Nc3cc(C)n[nH]3)cc(N3CCN(C(C)(C)CF)CC3)n2)cc1 [Compound 10]
- pKi (Aurora-1 (Aurora B)): 7.65
- pKi (Aurora-2 (Aurora A); read-out: Aurora A Ki): 8.70

Structure (SMILES): CCC(=O)Nc1ccc(Sc2nc(Nc3cc(C)n[nH]3)cc(N3CCC(O)(C(C)(C)C)CC3)n2)cc1 [Compound 14]
- pKi (Aurora-1 (Aurora B)): 7.87
- pKi (Aurora-2 (Aurora A); read-out: Aurora A Ki): 9.23

Structure (SMILES): CCC(=O)Nc1ccc(Sc2nc(Nc3cc(C)n[nH]3)cc(N3CC4CN(C(C)C)CC4C3)n2)cc1 (stereo not drawn) [Compound 19]
- pKi (Aurora-1 (Aurora B)): 7.46
- pKi (Aurora-2 (Aurora A); read-out: Aurora A Ki): 8.27

Structure (SMILES): CCC(=O)Nc1ccc(Sc2nc(Nc3cc(C)n[nH]3)cc(N3CCC(NC(C)(C)C)CC3)n2)cc1 [Compound 11]
- pKi (Aurora-1 (Aurora B)): 7.55
- pKi (Aurora-2 (Aurora A); read-out: Aurora A Ki): 8.11

Structure (SMILES): C#CC(C)(C)N1CCN(c2cc(Nc3cc(C)n[nH]3)nc(Sc3ccc(NC(=O)CC)cc3)n2)CC1 [Compound 6]
- pKi (Aurora-1 (Aurora B)): 7.85
- pKi (Aurora-2 (Aurora A); read-out: Aurora A Ki): 8.74

Structure (SMILES): CCC(=O)Nc1ccc(Sc2nc(Nc3cc(C)n[nH]3)cc(N3CC4(C3)OCC4(C)C)n2)cc1 [Compound 26]
- pKi (Aurora-1 (Aurora B)): 7.60
- pKi (Aurora-2 (Aurora A); read-out: Aurora A Ki): 9.13

Structure (SMILES): CCC(=O)Nc1ccc(Sc2nc(Nc3cc(C)n[nH]3)cc(N3CCC(N(C)C(C)(C)C)CC3)n2)cc1 [Compound 15]
- pKi (Aurora-1 (Aurora B)): 7.50
- pKi (Aurora-2 (Aurora A); read-out: Aurora A Ki): 8.60

Structure (SMILES): Cc1cc(Nc2cc(N3CCC(F)C3)nc(Sc3ccc(NC(=O)CC(F)(F)F)cc3)n2)[nH]n1 (stereo not drawn) [Compound 32]
- pKi (Aurora-1 (Aurora B)): 8.40
- pKi (Aurora-2 (Aurora A); read-out: Aurora A Ki): 9.46

Structure (SMILES): Cc1cc(Nc2cc(N3CCC3)nc(Sc3ccc(NC(=O)CC(F)(F)F)cc3)n2)n[nH]1 [Compound 12]
- pKi (Aurora-1 (Aurora B)): 8.14
- pKi (Aurora-2 (Aurora A); read-out: Aurora A Ki): 9.15

Structure (SMILES): CCC(=O)Nc1ccc(Sc2nc(Nc3cc(C)n[nH]3)cc(N3CCC(C#N)(c4ccccc4OC)CC3)n2)cc1 [Compound 25]
- pKi (Aurora-1 (Aurora B)): 6.64
- pKi (Aurora-2 (Aurora A); read-out: Aurora A Ki): 9.05

Structure (SMILES): CCC(=O)Nc1ccc(Sc2nc(Nc3cc(C)n[nH]3)cc(N3CC=C(C(C)(C)C)CC3)n2)cc1 [Compound 23]
- pKi (Aurora-1 (Aurora B)): 6.21
- pKi (Aurora-2 (Aurora A); read-out: Aurora A Ki): 9.28

Structure (SMILES): CCOc1ccc(Sc2nc(Nc3cc(C)n[nH]3)cc(N3CCN(C(C)(C)C)CC3)n2)cc1 [Compound 36]
- pKi (Aurora-1 (Aurora B)): 7.34
- pKi (Aurora-2 (Aurora A); read-out: Aurora A Ki): 8.28

Structure (SMILES): Cc1cc(Nc2cc(N3CC(O)(C4CC4)C3)nc(Sc3ccc(NC(=O)C4CC4)cc3)n2)n[nH]1 [Compound 31]
- pKi (Aurora-1 (Aurora B)): 8.15
- pKi (Aurora-2 (Aurora A); read-out: Aurora A Ki): 9.06

Structure (SMILES): CCC(=O)Nc1ccc(Sc2nc(Nc3cc(C)n[nH]3)cc(N3CCC(N4CCCC4)CC3)n2)cc1 [Compound 7]
- pKi (Aurora-1 (Aurora B)): 7.30
- pKi (Aurora-2 (Aurora A); read-out: Aurora A Ki): 8.34

Structure (SMILES): CCC(=O)Nc1ccc(Sc2nc(Nc3cc(C)n[nH]3)cc(N3CC(O)(C4CC4)C3)n2)cc1 [Compound 21]
- pKi (Aurora-2 (Aurora A); read-out: Aurora A Ki): 9.41

Structure (SMILES): CCC(=O)Nc1ccc(Sc2nc(Nc3cc(C)n[nH]3)cc(N3CC(C)(N4CCCC4)C3)n2)cc1 [Compound 22]
- pKi (Aurora-1 (Aurora B)): 8.30
- pKi (Aurora-2 (Aurora A); read-out: Aurora A Ki): 9.17

Structure (SMILES): Cc1cc(Nc2cc(N3CCN(C(C)(C)C)CC3)nc(Sc3ccc(NC(=O)C4CC4)cc3)n2)[nH]n1 [Compound 3]
- pKi (Aurora-1 (Aurora B)): 7.65
- pKi (Aurora-2 (Aurora A); read-out: Aurora A Ki): 8.67

Structure (SMILES): Cc1cc(Nc2cc(N3CC(F)(C4CC4)C3)nc(Sc3ccc(NC(=O)CC(F)(F)F)cc3)n2)[nH]n1 [Compound 35]
- pKi (Aurora-1 (Aurora B)): 8.17
- pKi (Aurora-2 (Aurora A); read-out: Aurora A Ki): 9.45

Structure (SMILES): CCC(=O)Nc1ccc(Sc2nc(Nc3cc(C)n[nH]3)cc(N3CC[C@H](N4CCCC4)C3)n2)cc1 [Compound 16]
- pKi (Aurora-1 (Aurora B)): 7.01
- pKi (Aurora-2 (Aurora A); read-out: Aurora A Ki): 8.24

Structure (SMILES): CCC(=O)Nc1ccc(Sc2nc(Nc3cc(C)n[nH]3)cc(N3CC(O)(C(C)(C)C)C3)n2)cc1 [Compound 20]
- pKi (Aurora-1 (Aurora B)): 8.35
- pKi (Aurora-2 (Aurora A); read-out: Aurora A Ki): 9.46

Structure (SMILES): CCC(=O)Nc1ccc(Sc2nc(Nc3cc(C)n[nH]3)cc(N3CC(C)(OC(C)C)C3)n2)cc1 [Compound 28]
- pKi (Aurora-1 (Aurora B)): 7.84
- pKi (Aurora-2 (Aurora A); read-out: Aurora A Ki): 8.87

Structure (SMILES): Cc1cc(Nc2cc(N3CCC3)nc(Sc3ccc(NC(=O)c4ccccc4C(F)(F)F)cc3)n2)[nH]n1 [Compound 13]
- pKi (Aurora-1 (Aurora B)): 8.35
- pKi (Aurora-2 (Aurora A); read-out: Aurora A Ki): 9.42

Structure (SMILES): CCC(=O)Nc1ccc(Sc2nc(Nc3cc(C)n[nH]3)cc(N3CCN(C(C)(C)CO)CC3)n2)cc1 [Compound 8]
- pKi (Aurora-1 (Aurora B)): 7.81
- pKi (Aurora-2 (Aurora A); read-out: Aurora A Ki): 8.56

Structure (SMILES): CCC(=O)Nc1ccc(Sc2nc(NCCN3CCCCC3)cc(Nc3cc(C)n[nH]3)n2)cc1 [Compound 1]
- pKi (Aurora-1 (Aurora B)): 7.46
- pKi (Aurora-2 (Aurora A); read-out: Aurora A Ki): 8.05

Structure (SMILES): CCC(=O)Nc1ccc(Sc2nc(Nc3cc(C)n[nH]3)cc(N3CCN(C(C)(C)CC)CC3)n2)cc1 [Compound 9]
- pKi (Aurora-1 (Aurora B)): 7.71
- pKi (Aurora-2 (Aurora A); read-out: Aurora A Ki): 8.59

Structure (SMILES): CCC(=O)Nc1ccc(Sc2nc(Nc3cc(C4CC4)n[nH]3)cc(N3CCC(N4CCCC4)CC3)n2)cc1 [Compound 18]
- pKi (Aurora-1 (Aurora B)): 7.84
- pKi (Aurora-2 (Aurora A); read-out: Aurora A Ki): 8.56

Structure (SMILES): COc1cccc(Sc2nc(NC3=NN=C(C)C3)cc(N3CCN(C(C)(C)C)CC3)n2)c1 [Compound 4]
- pKi (Aurora-1 (Aurora B)): 6.84
- pKi (Aurora-2 (Aurora A); read-out: Aurora A Ki): 8.07

Structure (SMILES): CCC(=O)Nc1ccc(Sc2nc(Nc3cc(C)n[nH]3)cc(N3CC(O)(C(C)C)C3)n2)cc1 [Compound 30]
- pKi (Aurora-2 (Aurora A); read-out: Aurora A Ki): 8.94

Structure (SMILES): Cc1cc(Nc2cc(N3CCN(C(C)(C)C)CC3)nc(Sc3ccc(NC(=O)C4CCCC4)cc3)n2)[nH]n1 [Compound 5]
- pKi (Aurora-1 (Aurora B)): 7.67
- pKi (Aurora-2 (Aurora A); read-out: Aurora A Ki): 8.46
